pIC50: −log10 of the molar value.
Key:
HCT116 MTAP-/- cells = assay: HCT116 MTAP-/- cell proliferation assay (CellTiter-Glo, 10 days); format: cell-based; settings: Homo sapiens, HCT-116, 240 h, growth inhibition, CTG assay Day 10
Description: (§1) • I. Experimental materials and instruments • 1. HCT116 cell line (Nanjing Kebai Biotechnology Co., Ltd., CBP60028) • 2. HCT116 MTAP-/- cell line (Nanjing Kebai Biotechnology Co., Ltd., CBP75002) • 3. DMSO (Sigma, D2650) • 4. McCoy's 5A medium (Gibco, 16600-082) • 5. Foetal bovine serum (FBS) (Gibco, 10091148) • 6. Phosphate buffered saline (DPBS) pH 7.4 (Gibco, 14190-144) • 7. Pen strep (PS) (Gibco, 15140-122) • 8. 0.25% Typsin-EDTA (1×) (Gibco, 25200-072) • 9. CellTiter-Glo® Luminescent Cell Viability Assay (Promega, G7572) • 10. 96-well round-bottom plate (JET, TCP002096) • 11. 96-well black clear bottom plate (Hangzhou Xinyou Biotechnology Co., Ltd., 060096) • 12. 1.2 mL 96-well deep well plate, clear, sterile, square-well, V-bottom (Titan, 02089063) • 13. 15-mL centrifuge tube (Titan) • 14. Biosafety cabinet (Thermo, 1300AII) • 15. Cell counter (Countstar, IC1000) • 16. Incubator (Thermo, I160) • 17. Centrifuge (Beckman coulter, Allegra X-12 centrifuge) • 18. PHERAstar FS microplate reader (BMG Labtech) • II. Experimental procedure • 1. Cell plating (Day 0) • a) The cell morphology was observed under a microscope to ensure confluence reached approximately 90%. • b) The cell supernatant was aspirated, the cells were washed once with PBS, and then the PBS was removed; and the cells were digested by adding an appropriate amount of trypsin, and left to stand at 37°C for 3 minutes. • c) The digestion was terminated by adding an equal volume of McCoy's 5A medium containing 10% FBS, and the cell suspension was collected and centrifuged at 300 g for 3 minutes; and the cells were resuspended in an appropriate amount of fresh medium. • d) The resuspended cell suspension was taken for counting. • e) The cell suspension was diluted to 1e4/mL using McCoy's 5A medium containing 10% FBS, and seeded at 50 µL per well, corresponding to 500 cells/well for HCT116 and 500 cells/well for HCT116 MTAP-/-. • f) The cell plate was placed in a 37°C, 5% carbon dioxide incubator and incubated overnight. • 2. Compound treatment (Day 1) • a) Each compound was serially diluted in DMSO to generate a 9-point concentration gradient (starting concentration: 10000 µM, 3-fold dilution; the highest concentration may be adjusted individually based on IC50 of different compounds); for example, in a 96-well round-bottom compound-dilution plate, 5 µL of the compound was sequentially diluted into 10 µL of DMSO. • b) Each concentration point of every compound was then diluted 250-fold into the corresponding volume of McCoy's 5A medium. • c) To each cell plate, 50 µL of the diluted compound solution as described above was added sequentially to the cell supernatant (50 µL/well). • d) The compound-treated cell plate was placed in a 37°C, 5% carbon dioxide incubator and incubated. • 3. Re-digestion, re-plating and compound treatment (Day 5) • a) After 5 days of compound treatment, the compound-containing medium was aspirated, and the cells were rinsed once with PBS (100 µL/well); and the PBS was removed immediately. • b) The cells were digested by adding 25 µL of trypsin and incubated at 37°C for 3 minutes, and then the digestion was terminated by adding 175 µL/well of McCoy's 5A medium containing 10% FBS. • c) The cells were mixed thoroughly using a pipette, and re-plated at 1 : 20; and specifically, 10 µL of the cell suspension was aspirated to a new 96-well plate (pre-filled with 40 µL of McCoy's 5A medium containing 10% FBS. • d) Compounds were prepared and added according to steps a) to c) in Section 2, with 50 µL added per well. • e) The compound-treated cell plate was placed in a 37°C, 5% carbon dioxide incubator and incubated. • 4. […]

HCT116 cells = assay: HCT116 cell proliferation assay (CellTiter-Glo, 10 days); format: cell-based; settings: Homo sapiens, HCT-116, 240 h, growth inhibition, CTG assay Day 10
Description: as §1, with “3.” for “3. Re-digestion, re-plating and compound treatment (Day 5) • a) After 5 days of compound treatment, the compound-containing medium was aspirated, and the cells were rinsed once with PBS (100 µL/well); and the PBS was removed immediately. • b) The cells were digested by adding 25 µL of trypsin and incubated at 37°C for 3 minutes, and then the digestion was terminated by adding 175 µL/well of McCoy's 5A medium containing 10% FBS. • c) The cells were mixed thoroughly using a pipette, and re-plated at 1 : 20; and specifically, 10 µL of the cell suspension was aspirated to a new 96-well plate (pre-filled with 40 µL of McCoy's 5A medium containing 10% FBS. • d) Compounds were prepared and added according to steps a) to c) in Section 2, with 50 µL added per well. • e) The compound-treated cell plate was placed in a 37°C, 5% carbon dioxide incubator and incubated. • 4.”

[1] = Pharmacokinetic evaluation in Nu/Nu mice (plasma, LC-MS/MS); format: in vivo; settings: mouse, plasma, po, i.g., 100 mg/kg; for Vd/F: read-out: Apparent volume of distribution V/F; for AUC(0-t): read-out: Area under the curve AUC0-t; for CL/F: read-out: Clearance CL/F; for half-life: read-out: Half life T1/2 (converted); for Cmax: read-out: Plasma concentration Cmax
Procedure: Using Nu/Nu mice as the test animals, the plasma concentrations of the example compounds at different time points were determined by LC-MS/MS following oral gavage (i.g.) administration. The pharmacokinetic behaviours of the compounds of the present disclosure in Nu/Nu mice were investigated, and their pharmacokinetic profiles were evaluated.
Compound 1-p1, compound 2-p1, compound 8-p1 and comparative example 1.
A total of 36 female Nu/Nu mice (supplied by Vital River Laboratory Animal Technology Co., Ltd.) were randomly divided into 4 groups.
An appropriate amount of each test compound was weighed and dissolved in 5% DMSO+20% PEG400+70% (10% TPGS)+5% (1% HMPC K100LV) to prepare a 10 mg/mL colourless clear solution.
The administration dosage was 100 mg/kg, and the administration volume was 10 mL/kg.
Mice were not fasted. After oral gavage administration, blood (0.1 mL) was collected from the orbital cavity before administration, and at 0.25 h, 0.5 h, 1.0 h, 2.0 h, 4.0 h, 6.0 h, 8.0 h, 11.0 h and 24.0 h after administration. The blood was placed into EDTA-K2 anticoagulant tubes and centrifuged at 10000 rpm for 1 minute (4°C) to separate plasma. The plasma was separated within 1 h and stored at -20°C until analysis. The entire process from blood collection to centrifugation was performed in ice bath conditions.
Determination of test compound contents in plasma of Nu/Nu mice after administration of different compounds: To 20 µL of plasma samples from each time point in Nu/Nu mice, 200 µL of acetonitrile and 25 µL of verapamil (100 ng/mL) were added. The mixture was vortex-mixed for 5 minutes and centrifuged at 4000 rpm for 15 minutes. 90 µL of water and 90 µL of the supernatant were vortex-mixed for 5 minutes. 2 µL (for compound 1-p1), 2 µL (for compound 2-p1), 1 µL (for compound 8-p1), or 0.5 µL (for comparative example 1) of the supernatant was taken for LC-MS/MS analysis receptively.

With [2H]C([2H])([2H])n1ncc(-c2ccc3c(=O)[nH]nc(CN)c3c2)c1-c1c(F)cc2c(c1C#N)N1CCC[C@H]1CO2 (single isomer, unassigned) [Compound 8-p1] as the compound, how does the pIC50 (HCT116 MTAP-/- cells) read?
Its pIC50 is 7.79.

And the pIC50 (HCT116 cells)?
Its pIC50 is 5.84.

What about the Vd/F [1] of the same compound?
Its Vd/F is 23.9 L/kg.

And the AUC(0-t) [1]?
Its AUC(0-t) is 7640 ng·h/mL.

What about the CL/F [1] of the same compound?
The CL/F was 218 mL/min/kg.

And the half-life [1]?
Its half-life is 1.3 h.

And the Cmax [1]?
The Cmax was 2530 ng/mL.

With [2H]C([2H])([2H])n1ncc(-c2ccc3c(=O)[nH]nc(CN)c3c2)c1-c1c(F)cc2c(c1C#N)O[C@H]1CC[C@H]1O2 (single isomer, unassigned) [Compound 2-p1] as the compound, how does the pIC50 (HCT116 MTAP-/- cells) read?
The pIC50 was 7.99.

And the pIC50 (HCT116 cells)?
The pIC50 was 5.89.

What about the Vd/F [1] of the same compound?
Its Vd/F is 23.3 L/kg.

What about the AUC(0-t) [1] of the same compound?
Its AUC(0-t) is 7140 ng·h/mL.

And the CL/F [1]?
Its CL/F is 233 mL/min/kg.

What about the half-life [1] of the same compound?
The half-life was 1.2 h.

And the Cmax [1]?
Its Cmax is 2940 ng/mL.

With Cn1ncc(-c2ccc3c(=O)[nH]nc(CN)c3c2)c1-c1c(F)cc2c(c1C#N)O[C@H]1CC[C@H]1O2 (atropisomer, axis not shown; (M)) [Compound 1-p1, (M)-(2aS,8aR)-5-(4-(4-(aminomethyl)-1-oxo-1,2-dihydrophthalazin-6-yl)-1-methyl-1H-pyrazol-5-yl)-6-fluoro-1,2,2a,8a-tetrahydrobenzo[b]cyclobuta[e][1,4]dioxine-4-carbonitrile] as the compound, how does the pIC50 (HCT116 MTAP-/- cells) read?
Its pIC50 is 7.93.

What about the pIC50 (HCT116 cells) of the same compound?
The pIC50 was 5.84.

And the Vd/F [1]?
The Vd/F was 35.4 L/kg.

What about the AUC(0-t) [1] of the same compound?
The AUC(0-t) was 8650 ng·h/mL.

What about the CL/F [1] of the same compound?
The CL/F was 189 mL/min/kg.

What about the half-life [1] of the same compound?
Its half-life is 2.2 h.

What about the Cmax [1] of the same compound?
Its Cmax is 3250 ng/mL.
